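Step 1: Grow cells in 96-well plates. Step 2: Expose to compound for 48 hours at 5 concentrations. Step 3: Interpolate endpoints linearly; if unreached, use highest concentration. Abbreviation: GI50, concentration required for 50% inhibition of growth. At the TGI there is no net growth.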

This note sets out measurements from PubChem BioAssay (NCI).

Test systems include HCT-116 colon; OVCAR-8 ovarian; OVCAR-3 ovarian; OVCAR-5 ovarian; NCI-H522 lung; UACC-257 melanoma; EKVX NSCLC; LOX IMVI melanoma; NCI-H460 lung; NCI-H23 lung.
Holding throughout (test): inhibition of tumour cell growth, NCI panel, 48 h

Consider `Cc1cc2c(C(C)C)c(O)c(O)c(C=O)c2c(O)c1-c1c(C)cc2c(C(C)C)c(O)c(O)c(C=O)c2c1O` (tested in a mixture with another compound), for which the GI50 in the assay on HCT-116 colon was 0.455 µM; in the assay on OVCAR-8 ovarian it was 1.18 µM; in the assay on OVCAR-3 ovarian it was 1.03 µM; in the assay with OVCAR-5 ovarian, 1.65 µM; with NCI-H522 lung, 0.584 µM; in the assay on UACC-257 melanoma it was 1.79 µM. For the same compound, the GI50 in the assay with EKVX NSCLC is 0.473 µM; in the assay with LOX IMVI melanoma it was 1.16 µM; with NCI-H460 lung it was 0.484 µM; in the assay on NCI-H23 lung, 0.464 µM. Also, the TGI in the assay on HCT-116 colon turned out to be 1.61 µM; with OVCAR-8 ovarian it was 3.49 µM; in the assay with OVCAR-3 ovarian, 2.69 µM; with OVCAR-5 ovarian, 5.26 µM; in the assay with NCI-H522 lung, 2.44 µM; in the assay on UACC-257 melanoma, 4.12 µM. In addition, the TGI with EKVX NSCLC came to 3.18 µM; in the assay on LOX IMVI melanoma it was 2.54 µM; with NCI-H460 lung, 1.87 µM; in the assay on NCI-H23 lung, 2.03 µM.
Regarding `C[C@@H]1CN2[C@H]3[C@@H]1CC[C@]31CCC(=O)O[C@]1(C)[C@@H]1CC[C@H]3CCC=C3[C@@H]12`, the GI50 in the assay with HCT-116 colon, in the assay with OVCAR-8 ovarian, with OVCAR-3 ovarian, in the assay on OVCAR-5 ovarian, with NCI-H522 lung and in the assay on EKVX NSCLC was more than 70 µM each time. Further, the GI50 in the assay with LOX IMVI melanoma, in the assay with NCI-H460 lung and in the assay on NCI-H23 lung was more than 70 µM each time. In addition, the TGI with HCT-116 colon, in the assay with OVCAR-8 ovarian, in the assay with OVCAR-3 ovarian, in the assay on OVCAR-5 ovarian, in the assay on NCI-H522 lung and in the assay with EKVX NSCLC was more than 70 µM throughout. The TGI in the assay on LOX IMVI melanoma, in the assay on NCI-H460 lung and in the assay on NCI-H23 lung was more than 70 µM throughout.
`O=C(CC1(O)C(=O)Nc2c(Cl)ccc(Cl)c21)c1ccc(C2CC2)cc1` (configuration not stated): the GI50 is 0.375 µM in the assay with HCT-116 colon; 1.43 µM in the assay on OVCAR-8 ovarian; 3.46 µM with OVCAR-3 ovarian; 2.05 µM with OVCAR-5 ovarian; 0.43 µM in the assay on NCI-H522 lung; 2.48 µM in the assay on UACC-257 melanoma. For the same compound, the GI50 is 2.15 µM in the assay with EKVX NSCLC, 0.392 µM in the assay on LOX IMVI melanoma, 0.622 µM with NCI-H460 lung and 0.772 µM in the assay on NCI-H23 lung. Further, the TGI with HCT-116 colon was 6.05 µM; in the assay on OVCAR-8 ovarian it was 13.4 µM; in the assay with OVCAR-3 ovarian, 16.6 µM; with OVCAR-5 ovarian, 16.8 µM; in the assay on NCI-H522 lung it was 1.9 µM; in the assay with UACC-257 melanoma it was 24.7 µM. The TGI was determined as 20.7 µM in the assay with EKVX NSCLC, 14 µM with LOX IMVI melanoma, 9 µM in the assay on NCI-H460 lung and 23.1 µM in the assay with NCI-H23 lung.
With `O=C1c2cccc3cc([N+](=O)[O-])cc(c23)C(=O)N1O`, the TGI in the assay on HCT-116 colon, in the assay with OVCAR-8 ovarian, with OVCAR-3 ovarian, with OVCAR-5 ovarian, in the assay on NCI-H522 lung and in the assay on UACC-257 melanoma was more than 100 µM each time. The TGI in the assay with EKVX NSCLC, with LOX IMVI melanoma, in the assay with NCI-H460 lung and with NCI-H23 lung was more than 100 µM each time.
On to `Cc1cccnc1CNC1CC(NCc2ncccc2C)CC(NCc2ncccc2C)C1` (configuration not stated), for which the GI50 in the assay with HCT-116 colon is 1.63 µM; in the assay with OVCAR-8 ovarian, 2.2 µM; with OVCAR-3 ovarian, 3.1 µM; in the assay with OVCAR-5 ovarian it was 1.92 µM; with NCI-H522 lung, 2.69 µM; in the assay on UACC-257 melanoma, 1.74 µM. The GI50 in the assay with EKVX NSCLC is 2.56 µM; in the assay on LOX IMVI melanoma, 1.92 µM; with NCI-H460 lung it was 2.41 µM; in the assay with NCI-H23 lung it was 2.8 µM. Besides, the TGI with HCT-116 colon stood at 3.24 µM; in the assay with OVCAR-8 ovarian, 4.87 µM; in the assay with OVCAR-3 ovarian, 8.94 µM; in the assay with OVCAR-5 ovarian, 5.23 µM; with NCI-H522 lung it was 12.2 µM; with UACC-257 melanoma, 3.58 µM. For the same compound, the TGI amounted to 8.14 µM in the assay with EKVX NSCLC, 3.96 µM in the assay with LOX IMVI melanoma, 6.03 µM in the assay on NCI-H460 lung and 6.82 µM in the assay on NCI-H23 lung.
With `CN(C)CCOc1nc2ccccc2c2c1-c1ccc(Cl)cc1C2=O`, the GI50 in the assay on HCT-116 colon was 0.422 µM; in the assay on OVCAR-8 ovarian, 0.386 µM; in the assay on OVCAR-3 ovarian, 0.622 µM; in the assay on OVCAR-5 ovarian, 1.27 µM; with NCI-H522 lung it was 0.573 µM; in the assay on UACC-257 melanoma it was 1.25 µM. Further, the GI50 with EKVX NSCLC was 2.06 µM; in the assay on LOX IMVI melanoma, 0.416 µM; in the assay on NCI-H460 lung, 0.365 µM; with NCI-H23 lung, 1.14 µM. Besides, the TGI in the assay with HCT-116 colon came out at 1.52 µM; in the assay with OVCAR-8 ovarian, 2.22 µM; with OVCAR-3 ovarian it was 1.85 µM; in the assay with NCI-H522 lung it was 2.09 µM; in the assay on UACC-257 melanoma, 2.97 µM; in the assay with EKVX NSCLC it was 6.85 µM. Besides, the TGI with LOX IMVI melanoma is 1.78 µM; in the assay with NCI-H460 lung, 1.3 µM; in the assay on NCI-H23 lung it was 4.04 µM.
For `CS(=O)(=O)c1nc(Cl)c(Cl)c(C#N)c1Cl`, the TGI stood at 4.47 µM in the assay on HCT-116 colon; 9.77 µM in the assay on OVCAR-8 ovarian; 4.73 µM in the assay with OVCAR-3 ovarian; 9.41 µM with OVCAR-5 ovarian; 1.28 µM with NCI-H522 lung; 5.52 µM in the assay on UACC-257 melanoma. The TGI in the assay on EKVX NSCLC came out at 27.4 µM; with LOX IMVI melanoma it was 4.3 µM; in the assay on NCI-H460 lung it was 32.4 µM; in the assay with NCI-H23 lung, 9 µM.
As for `COC(=O)C(=O)C1CCCCC(C2=NC3NN=C(N)N3C2=O)C1=O` (configuration not stated), the TGI in the assay with HCT-116 colon, with OVCAR-8 ovarian, in the assay with OVCAR-3 ovarian, with OVCAR-5 ovarian, with NCI-H522 lung and with UACC-257 melanoma was more than 100 µM throughout. Besides, the TGI in the assay with EKVX NSCLC, with LOX IMVI melanoma, in the assay on NCI-H460 lung and with NCI-H23 lung was more than 100 µM in each case.
